Data from patent publication US20160045505A1, “COMPOUNDS AND COMPOSITIONS FOR THE TREATMENT OF PARASITIC DISEASES” (NOVARTIS AG, priority 2013, published 2016).
Like-named read-outs stand apart in the source and are kept apart here.

Columns and labels:
[1] = test system: L. donovani HU3 strain in mouse peritoneal macrophages; test: Assay for proliferation of Leishmania parasites in infected mouse peritoneal macrophages (SybrGreen staining, high-content imaging, 5 days); type: cell-based, Leishmania donovani; conditions: Leishmania donovani, Peritoneal macrophage, L. donovani in mouse peritoneal macrophages; read-out: L. donovani Macrophage EC50
[2] = test system: Trypanosoma brucei Lister 427 strain, bloodstream form; test: Assay for proliferation of kinetoplastid parasite Trypanosoma brucei (Cell Titer Glo, 48 hours); type: cell-based; conditions: Trypanosoma brucei, T. brucei Lister 427 bloodstream form; read-out: T. brucei EC50
Procedure, shortened: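 Bloodstream-form T. brucei Lister 427 in HMI-9 medium was exposed to compound (DMSO vehicle) for 48 hours at 37° C, 5% CO2. Parasite growth was read as ATP by CellTiter-Glo luminescence, with EC50 calculated from percent inhibition.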

[3] = test system: Leishmania donovani axenic amastigote parasites; test: Leishmania donovani axenic amastigote proliferation assay (Cell TiterGlo luminescence, 2 day incubation); type: cell-based; conditions: Leishmania donovani, L. donovani axenic amastigotes; read-out: L. donovani amastigotes EC50
[4] = test system: Trypanosoma cruzi amastigotes (Tulahuen strain expressing Lac-Z) cultured in 3T3 fibroblast cells; test: microbe, parasite or virus in culture; type: cell-based; conditions: Trypanosoma cruzi, TULAHUEN, Fibroblast
[5] = T. cruzi amastigotes in 3T3 fibroblast cells, read-out: T cruzi EC50

SMILES | EC50 [1] [nM] | EC50 [2] [nM] | EC50 [3] [nM] | EC50 [4, 5] [µM] | EC50 ([4]; read-out: T cruzi EC50 (μM)) [µM]
Cc1nc(C)c(C(=O)Nc2ccc(F)c(-c3cn4cc([Si](C)(C)C)cnc4n3)c2)o1 [Compound 549, N-(4-fluoro-3-(6-(trimethylsilyl)imidazo[1,2-a]pyrimidin-2-yl)phenyl)-2,4-dimethyloxazole-5-carboxamide] | 448 | 117 | 133 | 0.063 | –
CC(C)OC(=O)N(C)c1cnc2nc(-c3cc(NC(=O)c4ccc(Cl)o4)ccc3F)cn2c1 [Compound 550, isopropyl (2-(5-(5-chlorofuran-2-carboxamido)-2-fluorophenyl)imidazo[1,2-a]pyrimidin-6-yl)(methyl)carbamate] | 516 | 78 | 176 | 0.042 | –
CC(C)OC(=O)N(C)c1cnc2nc(-c3cc(N(C)C(=O)c4ccc(Cl)o4)ccc3F)cn2c1 [Compound 551, isopropyl (2-(5-(5-chloro-N-methylfuran-2-carboxamido)-2-fluorophenyl)imidazo[1,2-a]pyrimidin-6-yl)(methyl)carbamate] | 6940 | 9320 | 11000 | 3.28 | –
Cc1nc(C)c(C(=O)Nc2ccc(F)c(-c3cn4cc(N(C)C(=O)OC(C)C)cnc4n3)c2)o1 [Compound 552] | 967 | 240 | 420 | 0.326 | –
Cc1nc(C)c(C(=O)N(C)c2ccc(F)c(-c3cn4cc(N(C)C(=O)OC(C)C)cnc4n3)c2)o1 [Compound 553] | 3610 | 4290 | 3480 | 3.11 | –
COCN(C(=O)OC(C)C)c1cnc2nc(-c3cc(NC(=O)c4oc(C)nc4C)ccc3F)cn2c1 [Compound 554] | 1850 | 664 | 814 | 1.51 | –
COCCN(C(=O)OC(C)C)c1cnc2nc(-c3cc(NC(=O)c4oc(C)nc4C)ccc3F)cn2c1 [Compound 555] | 5470 | 1570 | 3110 | 1.32 | –
CCCC(=O)OCN(C(=O)OC(C)C)c1cnc2nc(-c3cc(NC(=O)c4oc(C)nc4C)ccc3F)cn2c1 [Compound 556] | 99 | 70 | 63 | 0.313 | –
CC(C)OC(=O)Nc1cnc2nc(-c3cc(NCC(=O)N4CCCC4)ccc3F)cn2c1 [Compound 560] | 29700 | 5650 | 9840 | – | 12.1
CC(C)OC(=O)N(C)c1cnc2nc(-c3cc(NC(=O)c4ccco4)ccc3Cl)cn2c1 [Compound 561, isopropyl (2-(2-chloro-5-(furan-2-carboxamido)phenyl)imidazo[1,2-a]pyrimidin-6-yl)(methyl)carbamate] | 2140 | 286 | 740 | 0.139 | –
O=C(Nc1ccc(F)c(-c2cn3cc(OCCN4CCOCC4)cnc3n2)c1)N1CCCC1 [Compound 563] | 8500 | > 50000 | 14200 | 6.7 | –
CC(C)Nc1cnc2nc(-c3cc(NC(=O)N4CCC4)ccc3F)cn2c1 [Compound 564] | 290 | 56 | 212 | 0.204 | –
O=C(Nc1ccc(Cl)c(-c2cn3cc(C4=CCNCC4)cnc3n2)c1)N1CCCC1 [Compound 570, N-(4-chloro-3-(6-(1,2,3,6-tetrahydropyridin-4-yl)imidazo[1,2-a]pyrimidin-2-yl)phenyl)pyrrolidine-1-carboxamide] | 13600 | 248 | 1820 | 1.99 | –
Cc1nc(C)c(C(=O)Nc2ccc(F)c(-c3cn4cc(-c5ccc[nH]5)cnc4n3)c2)o1 [Compound 573] | 168 | 107 | 155 | 0.462 | –
O=C(Nc1ccc(Cl)c(-c2cn3cc(-c4ccc(OC5CCNCC5)cc4)cnc3n2)c1)N1CCCC1 [Compound 574] | 886 | 460 | 744 | 0.436 | –
Nc1cnc2nc(-c3cc(NC(=O)c4ccc(F)o4)ccc3Cl)cn2c1 [Compound 577, N-(3-(6-aminoimidazo[1,2-a]pyrimidin-2-yl)-4-chlorophenyl)-5-fluorofuran-2-carboxamide] | > 50000 | 1350 | 2990 | 2.34 | –
C=Cc1cnc2nc(-c3cc(NC(=O)c4oc(C)nc4C)ccc3F)cn2c1 [Compound 581, N-(4-fluoro-3-(6-vinylimidazo[1,2-a]pyrimidin-2-yl)phenyl)-2,4-dimethyloxazole-5-carboxamide] | 249 | 101 | 169 | 0.11 | –
CCNc1cnc2nc(-c3cc(NC(=O)c4oc(C)nc4C)ccc3F)cn2c1 [Compound 582, N-(3-(6-(ethylamino)imidazo[1,2-a]pyrimidin-2-yl)-4-fluorophenyl)-2,4-dimethyloxazole-5-carboxamide] | 928 | 476 | 585 | 0.466 | –
CN(C)C(=O)Nc1ccc(F)c(-c2cn3cc(N(C)C)cnc3n2)c1 [Compound 583, 3-(3-(6-(dimethylamino)imidazo[1,2-a]pyrimidin-2-yl)-4-fluorophenyl)-1,1-dimethylurea] | 1790 | 139 | 869 | 0.377 | –
Cc1cccnc1-c1cnc2nc(-c3cc(N)ccc3F)cn2c1 [Compound 594, 4-fluoro-3-(6-(3-methylpyridin-2-yl)imidazo[1,2-a]pyrimidin-2-yl)aniline] | > 32800 | > 50000 | > 25000 | > 19.9 | –
COC1CCC(C(=O)Nc2ccc(F)c(-c3cn4cc(C5CC5)cnc4n3)c2)CC1 (centres unmarked) [Compound 597] | 17100 | 31400 | 24100 | 16 | –
O=C(Nc1ccc(F)c(-c2cn3cc(C4CC4)cnc3n2)c1)[C@H]1CC[C@@H](O)CC1 [Compound 598] | 10300 | 4360 | 2770 | 2.55 | –
O=C1CCC(C(=O)Nc2ccc(F)c(-c3cn4cc(C5CC5)cnc4n3)c2)C1 (centres unmarked) [Compound 599] | 639 | 3300 | 2690 | 3.93 | –
O=C(Nc1ccc(F)c(-c2cn3cc(C4CC4)cnc3n2)c1)C1COCCO1 (centres unmarked) [Compound 600] | > 50000 | 1780 | 1460 | 1.75 | –
CN1CCOC(C(=O)Nc2ccc(F)c(-c3cn4cc(C5CC5)cnc4n3)c2)C1 (centres unmarked) [Compound 601] | 4040 | > 50000 | > 25000 | > 20 | –
CC(C)(C)OC(=O)N1CCOC(C(=O)Nc2ccc(F)c(-c3cn4cc(C5CC5)cnc4n3)c2)C1 (centres unmarked) [Compound 602] | > 50000 | > 50000 | > 25000 | 13.6 | –
CC(C)(C)OC(=O)N1CCOCC1C(=O)Nc1ccc(F)c(-c2cn3cc(C4CC4)cnc3n2)c1 (centres unmarked) [Compound 603] | 12600 | 8170 | 17800 | 5.84 | –
O=C(Nc1ccc(F)c(-c2cn3cc(C4CC4)cnc3n2)c1)N1CC(F)(F)C1 [Compound 604] | 41 | 51 | 22 | 0.046 | –
O=C(Nc1ccc(F)c(-c2cn3cc(C4CC4)cnc3n2)c1)N1CC[C@@H](F)C1 [Compound 605] | 59 | 13 | 21 | 0.016 | –
